According to publication PMC6143625, “A high throughput screen for next-generation leads targeting malaria parasite transmission” (Nature Communications, 2018):
Where two headings read alike, the source gives them in different places.

What was measured:
[1] = test system: P. falciparum 3D7 asexual blood stages; assay: Whole-cell time extended asexual growth assay (pLDH); type: cell-based; conditions: Plasmodium falciparum, 72 h; for IC50: dose response retest, read-out: IC50 (µM) Asex stages; for inhibition at 2 µM: primary screen, read-out: %Inh Asex stages @2uM
Description: Asexual activity was assayed via Plasmodium lactate dehydrogenase activity (pLDH), a surrogate of asexual parasite growth. […] 2 µM artesunate and DMSO were used as the positive and negative controls, respectively. […] After plate mixing, NBT reduction was measured by absorbance at 650 nm using Envision (Perkin Elmer).

HepG2 human cells = test system: HepG2 human cells; parameters: method as in http://dx.doi.org/10.6019/CHEMBL3507680; conditions: ref http://dx.doi.org/10.6019/CHEMBL3507680; cited from earlier work
[2] = test system: P. falciparum stage V male gametocytes (male gamete formation); assay: P. falciparum dual gamete formation assay (Pf DGFA), male readout (exflagellation), 48 h carry-over format; type: cell-based, Plasmodium falciparum NF54; conditions: for IC50 / inhibition at 2 µM: Plasmodium falciparum; for IC50: read-out: Male IC50; for inhibition at 2 µM / %Inhibition Male @2uM: primary screen, single replicate
[3] = test system: P. falciparum stage V female gametocytes (female gamete formation); assay: P. falciparum dual gamete formation assay (Pf DGFA), female readout (Pfs25 expression), 48 h carry-over format; type: cell-based, Plasmodium falciparum NF54; conditions: for IC50 / inhibition at 2 µM: Plasmodium falciparum; for IC50: read-out: Female IC50; for inhibition at 2 µM / %Inhibition Female @2uM: primary screen, single replicate
[4] = 48 h, dose response retest of primary hits, 48 h incubation

Row | SMILES | IC50 [1] | inhibition at 2 µM [1] | %Inh HepG2 @10uM (HepG2 human cells) | %Inhibition Male @2uM ([2]; 48 h incubation) | %Inhibition Female @2uM ([3]; 48 h incubation) | also measured
1 | COc1cc(CNCC(O)c2ccc(F)c(F)c2)cc2c1OCO2 (centres unmarked) [DDD00408586] | 3 µM | 56.7% | 29.87% |  |  | 
2 | CCCc1nc2c(c(C)c(C)n2CCN(C)C)c(N)c1CC [DDD01026700] | 5.25 µM | 39.3% | 3.64% |  |  | 
3 | CCc1c(-c2ccccc2)nc2c(c(C)c(C)n2CCN(C)C)c1N [DDD01026714] | 3.31 µM | 48.1% | 15.22% |  |  | 
4 | Cc1c(-c2ccccc2)nc2c(c(C)c(C)n2CCN(C)C)c1N [DDD01026725] | 4.49 µM | 46.1% | 13.65% |  |  | 
5 | CC(C)n1ncc2c1NC(=O)CC21C(=O)Nc2c(Cl)ccc(Cl)c21 (centres unmarked) [DDD01027128] | 2.18 µM | 96.3% | -12.20% |  |  | 
6 | O=C(CN1CC(c2nc(C3CC3)no2)C1)N1CCOCC1.O=C(O)C(=O)O [DDD01027902] |  |  | -17.5% |  |  | IC50 [2, 4]: 1.18 µM; inhibition at 2 µM ([2]; 48 h incubation): 52.5%; IC50 [3, 4]: 5.81 µM; inhibition at 2 µM ([3]; 48 h incubation): < 30%
7 | CC(C)Nc1nc2c(c(NC3CC3)n1)CCN(C1CCOCC1)CC2 [DDD01029612] | 3.54 µM | 33.7% | -3.76% |  |  | 
8 | CC(C)Nc1nc2c(c(NC3CC3)n1)CN(C(=O)Cc1ccsc1)CC2 [DDD01029980] | 2.5 µM | 33.2% | 3.26% |  |  | 
9 | CC(C)Nc1nc2c(c(NC3CC3)n1)CN(C(=O)c1ccsc1)CC2 [DDD01030030] | 1.15 µM | 58.7% | -17.20% |  |  | 
10 | COc1ccc(CN2CCc3c(CNC(=O)CC#N)nn(C)c3C2)cc1.O=C(O)C(F)(F)F.O=C(O)C(F)(F)F [DDD01030619] |  |  | -1.4% |  |  | IC50 [2, 4]: 1.34 µM; inhibition at 2 µM ([2]; 48 h incubation): 59.5%; IC50 [3, 4]: > 10 µM; inhibition at 2 µM ([3]; 48 h incubation): < 30%
11 | COc1ccc(CNC(Cc2ccsc2)c2ccc(C)cn2)c(OC)c1 (centres unmarked) [DDD01058868] |  |  | 85.33% |  |  | IC50 [2, 4]: > 10 µM; inhibition at 2 µM ([2]; 48 h incubation): < 30%; IC50 [3, 4]: 5.3 µM; inhibition at 2 µM ([3]; 48 h incubation): 30.8%
12 | Cc1cccnc1CN1CC[C@H](Oc2cccc(F)c2)[C@@](C)(O)C1 [DDD01060871] |  |  | -0.828% |  |  | IC50 [2, 4]: > 10 µM; inhibition at 2 µM ([2]; 48 h incubation): < 30%; IC50 [3, 4]: 6.07 µM; inhibition at 2 µM ([3]; 48 h incubation): 32.8%
13 | CC(NCC1CCN(CCO)CC1)c1ccc(C(F)(F)F)cc1 (centres unmarked) [DDD01073719] |  |  | 14.02% |  |  | IC50 [2, 4]: 7.83 µM; inhibition at 2 µM ([2]; 48 h incubation): 34.8%; IC50 [3, 4]: > 10 µM; inhibition at 2 µM ([3]; 48 h incubation): < 30%
14 | O=C(C1CC2(CCNCC2)CN1)N1CCN(c2cccc(Cl)c2Cl)CC1 (centres unmarked) [DDD01243908] |  |  | -1.58% |  |  | IC50 [2, 4]: 4.28 µM; inhibition at 2 µM ([2]; 48 h incubation): 65.7%; IC50 [3, 4]: 4.79 µM; inhibition at 2 µM ([3]; 48 h incubation): < 30%
15 | CC(C)COC(C)C(=O)NCc1ccc(-n2cncn2)nc1 (centres unmarked) [DDD01301486] |  |  |  | <30% | 33.08% | 
16 | COc1ccc(-c2nc(CNCCn3cccn3)cs2)cc1 [DDD01301541] |  |  |  | <30% | 31.18% | 
17 | CC(CC(=O)NS(=O)(=O)c1ccc2c(c1)OCCO2)c1ccc(F)cc1 (centres unmarked) [DDD01301601] |  |  |  | <30% | 38.27% | 
18 | c1cnc(-c2nc(CN3CCn4c(nnc4C4CC4)C3)cs2)nc1 [DDD01301615] |  |  |  | <30% | 32.48% | 
19 | Cc1nc(C)n(CC2CCCN(CCOc3cccc(C#N)c3)C2)n1 (centres unmarked) [DDD01302568] |  |  |  | 85.34% | <30% | 
20 | CCC(NC(=O)c1ccco1)c1ccccc1OCC(=O)N1CCCC1 (centres unmarked) [DDD01302666] |  |  |  | 33.09% | <30% | 
21 | CC(C)CCN(C)C(=O)c1nc(S(C)(=O)=O)n2ccccc12 [DDD01302801] |  |  |  | 31.11% | <30% | 
22 | COc1ccc(NC(=O)c2ccc(-n3ncc(C#N)c3N)cc2)cn1 [DDD01303472] |  |  | 3.50% |  |  | 
23 | O=C(NCC1(O)CCOc2ccccc21)c1ccc(Br)s1 (centres unmarked) [OJF-034] |  |  |  |  |  | IC50 ([2]; SAR, Fig. 6 and Fig. 7): > 25 µM; IC50 ([3]; SAR, Fig. 7): > 25 µM
